Where a name gives a salt, the structure may show the parent alone.

The test system of experiment [1] is pulmonary surfactant secretion. Briefly: Stimulatory effect on pulmonary surfactant secretion (disaturated phosphatidylcholine in bronchoalveolar lavage fluid). The class given is in vivo, guinea pig (male Hartley). Conditions: guinea pigs; for Pharmacological activity: % increase of disaturated phosphatidylcholine (DSPC) compared to control values: 50 mg/kg i.p. once, lavage 3 hours later, number of animals in parentheses, * significantly different from control values (p < 0.05), Compounds A and B not marked *; for stimulation of pulmonary surfactant secretion (in words): conclusion from Table 1, 50 mg/kg i.p. The method, then: The stimulatory effect of the compound of the present invention on pulmonary surfactant secretion In the experiment, male Hartley guinea pigs weighing 300-350 g were used. Methods 50 mg/kg of the test compound was intraperitoneally administered to guinea pigs once. Three hours later, the animals were anesthetized with 100 mg/kg of pentobarbital sodium and sacrificed by bleeding from the abdominal aorta and vena cava. Then, bronchoalveolar lavage with 10 ml/kg of ice-cooled physiological saline was performed twice. The combined bronchoalveolar lavage fluid was centrifuged at 1,000 rpm for 10 minutes at 4° C. From the supernatant of bronchoalveolar lavage fluid, the lipid was extracted in accordance with the method of Folch et al. (Journal of Biological Chemistry, 226, 497-502, 1957). The characteristic component of pulmonary surfactant, i.e., disaturated phosphatidylcholine was extracted by the method of Gilfillan et al. (Journal of Lipid Research, 24, 1651- 1656, 1983). The disaturated phosphatidylcholine was assayed with Nescoat PL Kit-K (Nippon Shoji Co., Ltd.) and the percent increase compared to a control group was determined (M. Takayama, et al.: Clin. Chim. Acta, 79, 93-98, 1977).

Experiment [2] deals with secretion of the endogenous pulmonary surfactant. Conditions: Post et al.: Lung 161, 349-359, 1983; cited from earlier work.

As to `CN(C)CCn1c(=O)[nH]c2ccc(Br)cc21.Cl` [3(5), 6-Bromo-1,3-dihydro-1-(2-dimethylaminoethyl)-2H-benzimidazol-2-one hydrochloride], the “Pharmacological activity: % increase of disaturated phosphatidylcholine (DSPC) compared to control values” (“Pharmacological activity: % increase” for short) in experiment [1] worked out at 27.9 ± 6.2%. The same measure, in the same setting: the same measure for `CN(C)CCn1c(=O)[nH]c2c(Br)cc(Br)cc21.Cl` [4(3), 4,6-Dibromo-1,3-dihydro-1-(2-dimethylaminoethyl)-2H-benzimidazol-2-one hydrochloride]: 32.3 ± 7.0%. The same measure, in the same setting: the same measure for `CN(C)CCn1c(=O)[nH]c2ccc(Cl)cc21.Cl` [11(4), 6-Chloro-1,3-dihydro-1-(2-dimethylaminoethyl)-2H-benzimidazol-2-one hydrochloride]: 37.8 ± 13.2%; for `Cl.O=c1[nH]c2ccc(Cl)cc2n1CCN1CCCC1` [19(4), 6-Chloro-1,3-dihydro-1-[2-(1-pyrrolidinyl)ethyl]-2H-benzimidazol-2-one hydrochloride]: 33.1 ± 8.3%. As for `CN(C)CCCn1c(=O)[nH]c2ccccc21` [Compound A, 1,3Dihydro-1-(3-dimethylaminopropyl)-2H-benzimidazol-2-one], in experiment [1], the “stimulation of pulmonary surfactant secretion (in words)” value is listed as “do not stimulate secretion of pulmonary surfactant but rather tend to decrease the secretion” and the “Pharmacological activity: % increase” value is recorded as -9.3%. The like results for `CCN(CC)CCn1c(=O)[nH]c2ccccc21` [Compound B, 1,3Dihydro-1-(2-diethylaminoethyl)-2H-benzimidazol-2-one] were, in that order, “do not stimulate secretion of pulmonary surfactant but rather tend to decrease the secretion” and -20.7%.

In the case of `CN(C)CCn1c(=O)[nH]c2ccccc21.Cl` [Example 12(5), 1,3-dihydro-1-(2-dimethylaminoethyl)-2H-benzimidazol-2-one hydrochloride], the “Pharmacological activity: % increase” value in experiment [1] was found to be 27.4 ± 4.9%. Take `Nc1c(Br)cc(Br)cc1CN[C@H]1CC[C@H](O)CC1` [ambroxol hydrochloride]: in experiment [2], the “activity to promote secretion of the endogenous pulmonary surfactant (in words)” value is “only substance known to have such activity”.

The values above are taken from patent US5162318A, “Benzimidazolinone derivatives” (Yamanouchi Pharmaceutical Co., Ltd., priority 1990, dated 1992).
